These results are taken from patent US6951647B2, “T cell binding ligand peptides and method of inducing a cellular immune response” (Cel-Sci Corporation, priority 2001, dated 2005).

Where no end group is shown, it is not given here.

For the series the following is noted: saline (0.15 M NaCl, pH 7.4) or WFI, 0.5-2.0 mg/ml; 2-8, 18-25 or 40 °C; pH 7.4 to 4.5; HPLC. As to the method:
The long range stability of the peptide constructs formed using Peptide G, was carried out with the construct dissolved in saline (0.15 M NaCl, pH 7.4) or in water for injection (WFI) at a concentration of 0.5-2.0 mg/ml and stored frozen soon after preparation.

With DGQEEKAGVVSTGLI [Peptide G′], the “Long range stability (deamination) of peptide constructs” value is “overcomes the long range stabilization problem of the peptide conjugates”.
